Laboratory results: patent US20250115591A1, “NOVEL SULFONAMIDE CARBOXAMIDE COMPOUNDS” (INFLAZOME LIMITED, priority 2017, published 2025)
Where a name gives a salt, the structure may show the parent alone. Read-outs that look alike come from different tables or passages of the source.

Columns and labels:
[1] = PK, intravenous administration; type: in vivo, male Sprague Dawley rats; settings: male, Sprague Dawley, plasma, rat, intravenous; for AUC: read-out: AUC; for clearance: read-out: Cl; for half-life: read-out: T1/2 (converted); for Vd: read-out: Vdss
Method: Pharmacokinetic parameters were determined in male Sprague Dawley rats (Charles River, UK, 250-300 g; or Vital River Laboratory Animal Technology Co Ltd, Beijing, China, 7-9 weeks old). Animals were individually housed during the study and maintained under a 12 h light/dark cycle. Animals had free access to food and water except that orally dosed animals were food deprived overnight prior to the study. For intravenous administration, compounds were formulated as a solution in water or DMSO:PBS [10:90] in 2 mL/kg dosing volume and administered via tail vein. For oral administration, compounds were formulated as a solution in water or DMSO:water [10:90] in 5 mL/kg dosing volume and administered orally. Serial blood samples (about 120-300 μL) were taken from each animal at each of 8 time-points post dose (0.083, 0.25, 0.5, 1, 2, 4, 8 and 24 h). Samples were held on ice for no longer than 30 minutes before centrifugation (10,000 rpm (8,385 g) for 3 minutes; or 5,696 rpm (3,000 g) for 15 minutes) for plasma generation. Plasma was frozen on dry ice prior to bioanalysis. PK parameters were generated from LC-MS/MS data using Dotmatics or Phoenix WinNonlin 6.3 software.

[2] = target: T1, NLRP3 (Homo sapiens (Human), UniProt Q96P20); experiment: THP-1 cells pyroptosis assay (LPS + nigericin, resazurin read-out); type: cell-based; settings: 1 μg/ml LPS, 5 μM nigericin
T1 sequence (Q96P20 whole entry): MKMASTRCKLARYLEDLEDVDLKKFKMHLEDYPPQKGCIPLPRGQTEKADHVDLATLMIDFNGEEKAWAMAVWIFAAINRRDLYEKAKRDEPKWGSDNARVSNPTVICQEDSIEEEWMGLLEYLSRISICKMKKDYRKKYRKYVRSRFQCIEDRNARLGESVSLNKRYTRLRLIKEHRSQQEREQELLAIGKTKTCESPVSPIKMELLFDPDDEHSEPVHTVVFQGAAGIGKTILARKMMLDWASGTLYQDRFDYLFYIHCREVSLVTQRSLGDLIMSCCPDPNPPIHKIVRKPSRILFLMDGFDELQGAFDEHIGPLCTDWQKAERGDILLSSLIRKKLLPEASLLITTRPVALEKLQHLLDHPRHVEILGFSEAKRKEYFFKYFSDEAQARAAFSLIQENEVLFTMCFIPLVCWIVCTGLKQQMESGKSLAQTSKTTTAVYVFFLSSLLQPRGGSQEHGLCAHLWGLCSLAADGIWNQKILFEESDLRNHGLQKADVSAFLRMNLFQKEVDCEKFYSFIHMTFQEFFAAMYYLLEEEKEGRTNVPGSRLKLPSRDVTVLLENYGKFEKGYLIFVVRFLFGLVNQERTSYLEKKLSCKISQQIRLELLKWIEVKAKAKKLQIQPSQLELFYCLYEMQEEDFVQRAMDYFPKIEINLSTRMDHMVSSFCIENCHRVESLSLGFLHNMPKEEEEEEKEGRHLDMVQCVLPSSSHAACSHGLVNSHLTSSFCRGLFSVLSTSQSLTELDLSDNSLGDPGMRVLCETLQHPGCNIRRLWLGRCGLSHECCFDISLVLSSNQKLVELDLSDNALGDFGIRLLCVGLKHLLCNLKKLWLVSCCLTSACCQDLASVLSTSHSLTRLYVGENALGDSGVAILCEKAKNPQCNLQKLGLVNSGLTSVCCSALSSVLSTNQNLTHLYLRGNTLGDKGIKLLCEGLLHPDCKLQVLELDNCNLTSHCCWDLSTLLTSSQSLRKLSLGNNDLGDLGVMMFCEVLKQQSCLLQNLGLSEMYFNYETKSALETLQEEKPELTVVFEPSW
Summary of the method: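 LPS-primed (1 μg/ml) human THP-1 cells in serum-free RPMI were exposed to compound (8-point half-log series, top dose as printed "10M") for 3 h at 37 °C, then to nigericin 5 μM for 1 h. Remaining viability was read by resazurin (100 μM, 1-2 h) fluorescence, and IC50 came from 4-parameter variable-slope regression.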

[3] = target: T1, NLRP3; experiment: Human whole blood IL1β release assay (LPS + nigericin); type: cell-based; settings: human whole blood, 1 μg/ml LPS, nigericin, IL-1β release; read-out: HWB IC50
Method: For systemic delivery, the ability to inhibit NLRP3 when the compounds are present within the bloodstream is of great importance. For this reason, the NLRP3 inhibitory activity of a number of compounds in human whole blood was investigated in accordance with the following protocol.
Human whole blood in Li-heparin tubes was obtained from healthy donors from a volunteer donor panel. • 1. Plate out 80 μl of whole blood containing 1 μg/ml of LPS in 96-well, clear bottom cell culture plate (Corning #3585) • 2. Add 10 μl compound (8 points half-log dilution with 10 μM top dose) or vehicle (DMSO 0.1% FAC) to the appropriate wells • 3. Incubate for 3 hrs at 37° C., 5% CO2 • 4. Add 10 μl nigericin (Sigma #N7143) ([…]) to all wells • 5. Incubate for 1 hr at 37° C., 5% CO2 • 6. At the end of the incubation period, spin plates at 30×g for 5 mins to pellet cells and remove 20 μl of supernatant and add to 96-well v-bottom plates for IL-1β analysis (note: these plates containing the supernatants can be stored at −80° C. to be analysed at a later date) • 7. IL-1β was measured according to the manufacturer protocol (Perkin Elmer-AlphaLisa IL-Kit A[220F-5000) • 8. IC50 data is fitted to a non-linear regression equation (log inhibitor vs response-variable slope 4-parameters)

| Compound | IC50 [2] [nM] | IC50 [3] [nM] | also measured |
| --- | --- | --- | --- |
| CN1CCC(S(=O)(=O)NC(=O)Nc2c3c(cc4c2CCC4)CCC3)CC1 [Example 1, N-((1,2,3,5,6,7-Hexahydro-s-indacen-4-yl)carbamoyl)-1-methylpiperidine-4-sulfonamide, potassium salt] | 1000 to 10000 | 1000 to 10000 | AUC ([1]; dose 1 mg/kg): 1950 ng·h/mL; clearance ([1]; dose 1 mg/kg): 8.5 mL/min/kg; half-life ([1]; dose 1 mg/kg): 1.2 h; Vd ([1]; dose 1 mg/kg): 0.58 L/kg |
| CCN1CCCC(S(=O)(=O)NC(=O)Nc2c3c(cc4c2CCC4)CCC3)C1 (stereo not shown) [Example 9, 1-Ethyl-N-((1,2,3,5,6,7-hexahydro-s-indacen-4-yl)carbamoyl)-piperidine-3-sulfonamide, potassium salt] | < 1000 | < 1000 | AUC ([1]; dose 1 mg/kg): 2670 ng·h/mL; clearance ([1]; dose 1 mg/kg): 6.5 mL/min/kg; half-life ([1]; dose 1 mg/kg): 3.9 h; Vd ([1]; dose 1 mg/kg): 0.63 L/kg |
| CC(C)N1CCCC(S(=O)(=O)NC(=O)Nc2c3c(cc4c2CCC4)CCC3)C1 (stereo not shown) [Example 31, N-((1,2,3,5,6,7-Hexahydro-s-indacen-4-yl)carbamoyl)-1-iso-propyl-piperidine-3-sulfonamide, potassium salt] | < 1000 | < 1000 | AUC ([1]; dose 1 mg/kg): 2750 ng·h/mL; clearance ([1]; dose 1 mg/kg): 6.1 mL/min/kg; half-life ([1]; dose 1 mg/kg): 4.5 h; Vd ([1]; dose 1 mg/kg): 0.47 L/kg |
| CC(C)N1CCC(S(=O)(=O)NC(=O)Nc2c3c(cc4c2CCC4)CCC3)C1 (stereo not shown) [Example 41, N-((1,2,3,5,6,7-Hexahydro-s-indacen-4-yl)carbamoyl)-1-iso-propylpyrrolidine-3-sulfonamide, potassium salt] | < 1000 | < 1000 | AUC ([1]; dose 1 mg/kg): 1850 ng·h/mL; clearance ([1]; dose 1 mg/kg): 9.1 mL/min/kg; half-life ([1]; dose 1 mg/kg): 2.9 h; Vd ([1]; dose 1 mg/kg): 0.78 L/kg |
| CCCN1CC(S(=O)(=O)NC(=O)Nc2c3c(cc4c2CCC4)CCC3)C1 [Example 76, N-((1,2,3,5,6,7-Hexahydro-s-indacen-4-yl)carbamoyl)-1-propylazetidine-3-sulfonamide, potassium salt] | < 1000 | < 1000 | AUC ([1]; dose 1 mg/kg): 2650 ng·h/mL; clearance ([1]; dose 1 mg/kg): 6.3 mL/min/kg; half-life ([1]; dose 1 mg/kg): 1 h; Vd ([1]; dose 1 mg/kg): 0.25 L/kg |
| O=C(Nc1c2c(cc3c1CCC3)CCC2)NS(=O)(=O)C1CN(CC2CC2)C1 [Example 94, 1-(Cyclopropylmethyl)-N-((1,2,3,5,6,7-hexahydro-s-indacen-4-yl)carbamoyl)azetidine-3-sulfonamide, potassium salt] | < 1000 | < 1000 | AUC ([1]; dose 2.09 mg/kg): 1410 ng·h/mL; clearance ([1]; dose 2.09 mg/kg): 25.2 mL/min/kg; half-life ([1]; dose 2.09 mg/kg): 1.1 h; Vd ([1]; dose 2.09 mg/kg): 1.62 L/kg |
| O=C(Nc1c2c(cc3c1CCC3)CCC2)NS(=O)(=O)C1CN(C2CSC2)C1 [Example 109, N-((1,2,3,5,6,7-Hexahydro-s-indacen-4-yl)carbamoyl)-1-(thietan-3-yl)azetidine-3-sulfonamide, potassium salt] | < 1000 | < 1000 | AUC ([1]; dose 1 mg/kg): 1730 ng·h/mL; clearance ([1]; dose 1 mg/kg): 9.6 mL/min/kg; half-life ([1]; dose 1 mg/kg): 1.3 h; Vd ([1]; dose 1 mg/kg): 0.64 L/kg |
| Cn1ccc(CN2CC(S(=O)(=O)NC(=O)Nc3c4c(cc5c3CCC5)CCC4)C2)cc1=O [Example 141, N-((1,2,3,5,6,7-Hexahydro-s-indacen-4-yl)carbamoyl)-1-((1-methyl-2-oxo-1,2-dihydropyridin-4-yl)methyl)azetidine-3-sulfonamide, potassium salt] | < 1000 | 1000 to 10000 | – |
| O=C(Nc1c2c(cc3c1CCC3)CCC2)NS(=O)(=O)C1CN(CC2CCOC2)C1 (stereo not shown) [Example 144, N-((1,2,3,5,6,7-Hexahydro-s-indacen-4-yl)carbamoyl)-1-((tetrahydrofuran-3-yl)methyl)azetidine-3-sulfonamide, potassium salt] | < 1000 | 1000 to 10000 | – |
| O=C(Nc1c2c(cc3c1CCC3)CCC2)NS(=O)(=O)C1CN(CC2CCCO2)C1 (stereo not shown) [Example 145, N-((1,2,3,5,6,7-Hexahydro-s-indacen-4-yl)carbamoyl)-1-((tetrahydrofuran-2-yl)methyl)azetidine-3-sulfonamide, potassium salt] | < 1000 | 1000 to 10000 | – |
| O=C(Nc1c2c(cc3c1CCC3)CCC2)NS(=O)(=O)C1CN(CCO)C1 [Example 152, 1-(2-Hydroxyethyl)-N-((1,2,3,5,6,7-hexahydro-s-indacen-4-yl)carbamoyl)azetidine-3-sulfonamide, potassium salt] | < 1000 | < 1000 | – |
| COc1cc(-c2cc(F)cc(C(C)C)c2NC(=O)NS(=O)(=O)C2CN(C(C)C)C2)ccn1 [Example 158, N-((4-Fluoro-2-isopropyl-6-(2-methoxypyridin-4-yl)phenyl)carbamoyl)-1-isopropylazetidine-3-sulfonamide] | < 1000 | < 1000 | – |
| COc1cc(-c2ccc3c(c2NC(=O)NS(=O)(=O)C2CN(C(C)C)C2)CCC3)ccn1 [Example 159, 1-Isopropyl-N-((5-(2-methoxypyridin-4-yl)-2,3-dihydro-1H-inden-4-yl)carbamoyl)azetidine-3-sulfonamide] | < 1000 | < 1000 | – |
| COc1cc(-c2cc(F)cc(C(C)C)c2NC(=O)NS(=O)(=O)C2CN(C3CCC3)C2)ccn1 [Example 162, 1-Cyclobutyl-N-((4-fluoro-2-isopropyl-6-(2-methoxypyridin-4-yl)phenyl)carbamoyl)azetidine-3-sulfonamide] | < 1000 | < 1000 | – |
| COc1cc(-c2ccc3c(c2NC(=O)NS(=O)(=O)C2CN(C4CCC4)C2)CCC3)ccn1 [Example 163, 1-Cyclobutyl-N-((5-(2-methoxypyridin-4-yl)-2,3-dihydro-1H-inden-4-yl)carbamoyl)azetidine-3-sulfonamide] | < 1000 | < 1000 | – |
| CCN1CC(S(=O)(=O)NC(=O)Nc2c(-c3ccnc(OC)c3)ccc3c2CCC3)C1 [Example 167, 1-Ethyl-N-((5-(2-methoxypyridin-4-yl)-2,3-dihydro-1H-inden-4-yl)carbamoyl)azetidine-3-sulfonamide] | < 1000 | < 1000 | – |
| COc1cc(-c2ccc3c(c2NC(=O)NS(=O)(=O)C2CN(Cc4cccnc4)C2)CCC3)ccn1 [Example 170, N-((5-(2-Methoxypyridin-4-yl)-2,3-dihydro-1H-inden-4-yl)carbamoyl)-1-(pyridin-3-ylmethyl)azetidine-3-sulfonamide] | 1000 to 10000 | 1000 to 10000 | – |
| CC(C)c1cc(F)cc(-c2ccnc(C#N)c2)c1NC(=O)NS(=O)(=O)c1ccc(=O)n(C(C)C)c1 [Example 172, N-((2-(2-cyanopyridin-4-yl)-4-fluoro-6-isopropylphenyl)carbamoyl)-1-isopropyl-6-oxo-1,6-dihydropyridine-3-sulfonamide] | < 1000 | < 1000 | – |
| COc1cc(-c2cc(F)cc(C(C)C)c2NC(=O)NS(=O)(=O)c2ccc(=O)n(C(C)C)c2)ccn1 [Example 173, N-((4-Fluoro-2-isopropyl-6-(2-methoxypyridin-4-yl)phenyl)carbamoyl)-1-isopropyl-6-oxo-1,6-dihydropyridine-3-sulfonamide] | < 1000 | < 1000 | – |
| CC(C)n1cc(S(=O)(=O)NC(=O)Nc2c3c(cc4c2CCC4)CCC3)ncc1=O [Example 181, N-((1,2,3,5,6,7-Hexahydro-s-indacen-4-yl)carbamoyl)-4-isopropyl-5-oxo-4,5-dihydropyrazine-2-sulfonamide, sodium salt] | < 1000 | < 1000 | – |
| CC(C)n1cc(S(=O)(=O)NC(=O)Nc2c3c(cc4c2CCC4)CCC3)ccc1=O [Example 185, N-((1,2,3,5,6,7-Hexahydro-s-indacen-4-yl)carbamoyl)-1-isopropyl-6-oxo-1,6-dihydropyridine-3-sulfonamide, sodium salt] | < 1000 | 1000 to 10000 | – |
